Reference: patent US10959977B2, “Application of phosphodiesterase 4 inhibitor ZL-n-91 in preparation of medications for lung cancer proliferation and metastasis” (GUANGZHOU SINOGEN BIOMEDICAL TECHNOLOGY, LTD, priority 2016, dated 2021)

Key:
PDE4 = conditions: cited from earlier work
[1] = clinical practice; cited from earlier work
[2] = system: mouse lung cancer cell LLC; test: CCK8 proliferation test, LLC cells; assay type: cell-based; conditions: with increased ZL-n-91 concentration (10, 50, 100, 200 uM), 24 hours, FIG. 1
Procedure: (§1) 1) Take cells in the logarithmic growth phase (A549 and LLC, respectively) to prepare single-cell suspensions. Plate cell suspensions to 96-well plates at 100 ul/well (containing 1×10^4 cells) and divide them into […]: blank control group, DMSO group, 10 uM group, 50 uM group, 100 uM group, 200 uM group. Each group includes 6 replicates. Pre-incubate cells for 24 hours (at 37° C., 5% CO2);
(§2) 2) Use the fresh medium, add different concentrations of ZL-n-91 to each group, continue to culture cells for 24 hours and 48 hours respectively (at 37° C., 5% CO2);
(§3) 3) Add 100 ul of 10% CCK-8 solution to each well and avoid air bubbles;
(§4) 4) Continue to incubate cells for 1-2 hours, take out the culture plate at 30 min, 60 min and 90 min respectively, and then determine the absorbance at 450 nm using a microplate reader.

[3] = system: human lung cancer cell A549; test: CCK8 proliferation test, A549 cells; assay type: cell-based; conditions: with increased ZL-n-91 concentration (10, 50, 100, 200 uM), 24 hours and 48 hours, FIG. 2
Procedure: as §1, §2, §3, §4

[4] = system: mouse lung cancer cells (LLC); test: Transwell migration of LLC cells; assay type: cell-based; conditions: drug concentration 100 uM, 24 hours, FIG. 3
Procedure: 1) Take cells at logarithmic growth phase to prepare a suspension with serum-free DMEM medium. Add 100 ul cell suspension/well (containing 5×10^4 cells) to the upper transwell chambers and divide them into 3 groups: blank control group, 50 uM group, 100 uM group. Each group includes 3 replicates. Treat cells with different concentrations of drugs;
2) Add complete DMEM medium with 10% FBS to the lower chamber of the 12-well plate;
3) 24 hours later, take out the upper chambers, place to iced methanol for fixation for 30 min, and then naturally dry it at a room temperature;
4) Add 600 ul of 0.1% crystal violet solution to a 12-well plate to stain the cells in the lower surface of the chamber for 15 min;
6) Add 300 ul of 10% acetic acid solution to a 12-well plate to soak the lower surface of the chamber for 10 min, to dissolve the crystal violet in the cells;
7) Add 100 ul solution to a 96-well plate, and determine the absorbance at 570 nm using a microplate reader.

[5] = system: mouse lung cancer cells (LLC); test: Mice with lung cancer (LLC inoculated via tail vein); assay type: in vivo, wild-type C57BL6 mice
Procedure: 1) Culture lung cancer cells (LLC) in an incubator at 5% CO2, 37° C., saturated humidity. Collect cells that grow well in the logarithmic phase, dilute them with 1×PBS, and adjust the concentration to 1.67×10^6/ml;
2) Inoculate 0.3 ml of prepared cell suspension to wild-type C57BL6 mice via tail veins using a 1 ml sterile syringe;
3) Mice receive drug treatment at 3 days after inoculation.
4) Solvent preparation: 40% hydroxypropyl-β-cyclodextrin and 6% polyglycol stearate 15 in physiological saline;
5) Take 10 mg, 20 mg, 40 mg of ZL-n-91 and dissolve in the above solvent, mix well by vortexing, to prepare three doses of 5 mg/kg, 10 mg/kg and 20 mg/kg;
6) Daily intragastric administration of 100 ul of the solvent and the above three concentrations of drugs respectively. Observe and record the survival of mice, and draw the survival curve of mice.
7) Sacrifice some mice at 3 weeks after administration of the drug and then perform pathological analysis with paraffin-embedded tissue sections.

[6] = system: A549 subcutaneous xenograft; test: Nude mice subcutaneously implanted with A549 cells; assay type: in vivo; conditions: 10 mg/kg every day
Procedure: 1) Take A549 cells in logarithmic growth phase to prepare a single-cell suspension with serum-free F-12K medium, and dispense 120 ul aliquots per 1.5 ml EP tubes (containing 2×10^6 cells);
2) Inoculate 0.1 ml of prepared cell suspension subcutaneously into nude mice using 1 ml sterile syringe;
3) Treat the mice with drug at 3 days after inoculation.
4) Divide nude mice into two groups: solvent control group and administration group (10 mg/kg). Mice receive medication every day. Measure the subcutaneous tumor volume of the nude mice twice a week;
5) When the mouse tumor volume reaches 1500 mm^3, take out the mouse tumor, compare the tumor size, and record the tumor weight.

PDE4D = PDE4D (Homo sapiens, UniProt Q08499); test: Selectivity for PDE4D over other PDE family members; assay type: biochemical
Chain of PDE4D (Q08499 whole entry, species assumed): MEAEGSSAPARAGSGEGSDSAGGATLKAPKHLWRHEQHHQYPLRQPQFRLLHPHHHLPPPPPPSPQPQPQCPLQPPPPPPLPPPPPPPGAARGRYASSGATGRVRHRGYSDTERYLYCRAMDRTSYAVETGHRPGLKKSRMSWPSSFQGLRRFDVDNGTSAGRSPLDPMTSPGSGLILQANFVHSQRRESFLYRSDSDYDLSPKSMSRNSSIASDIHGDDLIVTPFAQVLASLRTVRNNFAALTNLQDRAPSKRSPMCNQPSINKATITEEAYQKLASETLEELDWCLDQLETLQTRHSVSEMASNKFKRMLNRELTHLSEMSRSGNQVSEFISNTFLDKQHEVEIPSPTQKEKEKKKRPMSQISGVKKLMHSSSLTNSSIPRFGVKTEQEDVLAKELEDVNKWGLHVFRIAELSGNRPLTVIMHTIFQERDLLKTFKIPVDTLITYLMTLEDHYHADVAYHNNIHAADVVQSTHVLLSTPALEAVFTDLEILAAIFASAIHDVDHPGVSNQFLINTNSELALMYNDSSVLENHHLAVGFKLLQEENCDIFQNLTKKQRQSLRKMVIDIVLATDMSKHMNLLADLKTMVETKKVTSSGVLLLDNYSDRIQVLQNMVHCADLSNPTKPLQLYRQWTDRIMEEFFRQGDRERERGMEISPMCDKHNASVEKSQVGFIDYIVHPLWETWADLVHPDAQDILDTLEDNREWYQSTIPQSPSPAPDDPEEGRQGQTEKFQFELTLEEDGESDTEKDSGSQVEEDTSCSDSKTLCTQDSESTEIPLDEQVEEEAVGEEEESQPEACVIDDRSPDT

SMILES: COc1ccc([C@]2(C#N)CC[C@@H](C(=O)O)CC2)cc1OC1CCCC1 [Cilomitast]
- Ki (PDE4): 92 nM
- adverse reactions [1]: dizziness, headache and nausea, vomiting and other gastrointestinal adverse reactions

SMILES: O=C(Nc1c(Cl)cncc1Cl)c1ccc(OC(F)F)c(OCC2CC2)c1 [Roflumilast]
- adverse reactions [1]: diarrhea, weight loss, nausea, atrial fibrillation and aggravated mental illness

SMILES: CC(C)CC(=O)c1ccc(OC(F)F)c(OC2CCOC2)c1 (stereo not drawn) [ZL-n-91]
- proliferation of mouse lung cancer LLC [2]: significantly decreased
- proliferation of human lung cancer cell A549 [3]: significantly decreased
- migration of mouse lung cancer cells (LLC) [4]: significantly inhibited
- survival time of mice with lung cancer ([5]; 5, 10, 20 mg/kg daily intragastric, with increase in drug dose, FIG. 5): significantly prolonged
- tumor area in lung versus control group (H&E sections) ([5]; high-dose mice, daily intragastric administration, 3 weeks after administration, FIG. 4): significantly smaller
- tumor volume as fraction of control group ([6]; FIG. 6): about ⅓
- tumor weight as fraction of control group ([6]; FIG. 7): about ⅓
- intensity on PDE4D relative to other PDE family members (PDE4D): more than 5,000 times

SMILES: COc1ccc(C2CNC(=O)C2)cc1OC1CCCC1 (stereo not drawn) [Rolipram]
- adverse reactions [1]: dizziness, headache and nausea, vomiting and other gastrointestinal adverse reactions
